Test results taken from patent publication US10538528B2, “5H-pyrrolo[2,3-D]pyrimidin-6(7H)-one derivative” (Taiho Pharmaceutical Co., Ltd., priority 2016, dated 2020).

Experiments:
[1] = system: HEC-6 cells (endometrial cancer cell lines); experiment: Cell growth suppression test on HEC-6 cells (CellTiter-Glo); assay type: cell-based; settings: 72 h, read-out: Cell growth inhibition GI50, heading: Cell growth inhibition GI50, 3 days, table head prints μM, method says GI50 (nM)
Experimental: The in vitro cell growth suppression test on HEC-6 cells (endometrial cancer cell lines) was performed under the conditions described below.
HEC-6 cells (Health Science Research Resources Bank, Cell Number: JCRB1118) cultured in a MEM medium containing 15% FBS (GIBCO, Cat#: 10370) were seeded on a 384-well flat bottom microplate (CORNING, Cat#: 3571) at 500 cells/well (20 μl) and cultured in an incubator containing 5% carbon dioxide at 37° C. for 1 day. The compound according to the present invention subjected to serial dilution with dimethyl sulfoxide or dimethyl sulfoxide alone was added to a MEM medium containing 15% FBS. […] Thereafter, the luminescence level derived from viable cells in each well was assayed with the use of the Multimode Plate Reader (PerkinElmer, EnVision). […] Thereafter, the luminescence level derived from viable cells in each well was assayed with the use of the Multimode Plate Reader. […] Cell growth rate (%)=(T−C0)/(C−C0)×100, provided that T is equal to or greater than C0(T≥C0) Cell growth rate (%)=(T−C0)/C0×100, provided that T is less than C0(T<C0) C0: Luminescence level in each well when the compound is added (count per second) C: Luminescence level in each well when dimethyl sulfoxide is added alone (count per second) T: Luminescence level in each well when the test compound is added (count per second) […]

[2] = system: RKO cells (human colon cancer cell lines); experiment: Cell growth inhibition study using RKO cells (CellTiter-Glo); assay type: cell-based; settings: 72 h, 3 days
Experimental: The in vitro cell growth inhibition study using RKO cells (human colon cancer cell lines) was conducted as described below.
RKO cells (ATCC, Cat#: CRL-2577) cultured in a MEM medium (GIBCO, Cat#:10370-088) supplemented with 10% FBS, 1 mM L-glutamine (GIBCO, Cat#:25030), and 1 mM sodium pyruvate (GIBCO, Cat#:11360) were seeded in a 96-well flat bottom microplate (COSTAR, Cat#:3904) at 2×10^3 cells (150 μl) and cultured in an incubator containing 5% CO2 at 37° C. for 1 day. The compound according to the present invention subjected to serial dilution with dimethyl sulfoxide or dimethyl sulfoxide alone was added to a MEM medium containing 10% FBS, 1 mM L-glutamine, and 1 mM sodium pyruvate. The resultant medium containing the compound or dimethyl sulfoxide alone was added to the RKO cells in the culture plate by 50 μl/well at the final concentration of the compound to 10, 3, 1, 0.3, 0.1, 0.03, 0.01, 0.003, and 0 μM, respectively. Another RKO cell culture plate separately prepared was allowed to stand at room temperature for 30 minutes, then 100 μl of the medium was removed, and added 50 μl of CellTiter-Glo® 2.0 Assay (Promega, Cat#:G9242) to each well. After the plates were placed in the dark for 10 minutes, the luminescence level derived from viable cells in each well was measured by the Multimode Plate Reader (PerkinElmer, EnSpire). The cells treated with the compound or dimethyl sulfoxide alone were cultured at 37° C. in an incubator containing 5% CO2 for an additional 3 days. After incubation, the culture plate was placed at room temperature for 30 minutes, and 150 μl of the supernatant was removed from each well to adjust the amount of the remaining cell culture solution to 50 μl each. To 50 μl of the remaining cell culture solution, the equivalent amount of CellTiter-Glo® 2.0 Assay was added. After the cell culture plate was placed in the dark for 10 minutes, the luminescence level derived from viable cells in each well was assayed with the use of the Multimode Plate Reader. The cell growth rate was calculated by the formulae shown below and the concentration at which the cell growth rate became 50%; i.e., the concentration of the compound according to the present invention at which cell growth would be inhibited by 50% was determined (GI50 (nM)). Cell growth rate (%)=(T−C0)/(C−C0)×100, provided that T is equal to or greater than C0(T≥C0) Cell growth rate (%)=(T−C0)/C0×100, provided that T is less than C0(T<C0) C0: Luminescence level in each well when the compound is added (count per second) C: Luminescence level in each well when dimethyl sulfoxide is added alone (count per second) T: Luminescence level in each well when the test compound is added (count per second)
As control compounds, conventional Comparative Example A (WO 2010/056563 (Example 31)) and Comparative Example B having inhibitory activity against Akt were used.
The GI50 levels of representative compounds according to the present invention and reference compounds in RKO cells were evaluated, and the results are shown in Table 5.

human Akt1 = human Akt1 (Homo sapiens (Human), UniProt P31749); experiment: Inhibitory effects on Akt1 kinase activity (TR-FRET, biotinylated Crosstide); assay type: biochemical; settings: Akt1, ATP 150 μM, pre-incubation 120 minutes at 25° C.; read-out: AKT inhibitory activity IC50
Summary of the method: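 Middle T-tagged human Akt1 from Sf9 cells, PDK1-activated, pre-incubated with compound 120 min at 25 °C (Tris pH 7.5); then 500 nM biotin-Crosstide, 10 mM MgCl2, 150 μM ATP for 60 min at 25 °C. Eu-anti-phospho-Crosstide/APC-SA TR-FRET 665/620 ratio; IC50 as 50% phosphorylation inhibition.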

human Akt1, sequence (P31749 whole entry): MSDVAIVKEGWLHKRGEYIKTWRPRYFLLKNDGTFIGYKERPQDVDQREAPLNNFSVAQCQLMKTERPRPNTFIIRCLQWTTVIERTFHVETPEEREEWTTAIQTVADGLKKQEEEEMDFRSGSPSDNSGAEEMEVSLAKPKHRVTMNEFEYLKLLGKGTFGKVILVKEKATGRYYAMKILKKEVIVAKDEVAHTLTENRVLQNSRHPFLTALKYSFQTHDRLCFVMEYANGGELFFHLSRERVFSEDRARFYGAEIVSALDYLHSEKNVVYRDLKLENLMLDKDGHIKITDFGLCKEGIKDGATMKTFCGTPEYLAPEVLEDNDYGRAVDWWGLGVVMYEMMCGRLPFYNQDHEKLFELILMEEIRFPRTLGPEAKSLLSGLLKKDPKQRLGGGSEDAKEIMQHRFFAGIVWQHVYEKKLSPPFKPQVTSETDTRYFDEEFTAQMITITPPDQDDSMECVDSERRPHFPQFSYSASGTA

GI50 [1] [µM]	GI50 [2] [nM]	IC50 (human Akt1) [nM]	Compound
1.04	1050		CN(C)CCn1cc(-c2ccc(F)c(C(F)(F)F)c2)nc1C1CCN(c2ncnc3c2C(C)(C)C(=O)N3)CC1 [Comparative Example A, reference compound]
2.92	2640	657	CC(C)(C)NCCNc1cc(-c2cncc(F)c2)nc(C2CCN(c3ncnc4c3C(C)(C)C(=O)N4)CC2)c1 [Comparative Example B, 4-(4-(4-((2-(Tert-butylamino)ethyl)amino)-5′-fluoro-[2,3′-bipyridin]-6-yl)piperidin-1-yl)-5,5-dimethyl-5H-pyrrolo[2,3-d]pyrimidin-6(7H)-one, reference compound]
